This is an account of results in PMC5607274, “An iterative compound screening contest method for identifying target protein inhibitors using the tyrosine-protein kinase Yes” (Scientific Reports, 2017).

Each structure is given as a SMILES string.

T1 sequence (P07947 2-543): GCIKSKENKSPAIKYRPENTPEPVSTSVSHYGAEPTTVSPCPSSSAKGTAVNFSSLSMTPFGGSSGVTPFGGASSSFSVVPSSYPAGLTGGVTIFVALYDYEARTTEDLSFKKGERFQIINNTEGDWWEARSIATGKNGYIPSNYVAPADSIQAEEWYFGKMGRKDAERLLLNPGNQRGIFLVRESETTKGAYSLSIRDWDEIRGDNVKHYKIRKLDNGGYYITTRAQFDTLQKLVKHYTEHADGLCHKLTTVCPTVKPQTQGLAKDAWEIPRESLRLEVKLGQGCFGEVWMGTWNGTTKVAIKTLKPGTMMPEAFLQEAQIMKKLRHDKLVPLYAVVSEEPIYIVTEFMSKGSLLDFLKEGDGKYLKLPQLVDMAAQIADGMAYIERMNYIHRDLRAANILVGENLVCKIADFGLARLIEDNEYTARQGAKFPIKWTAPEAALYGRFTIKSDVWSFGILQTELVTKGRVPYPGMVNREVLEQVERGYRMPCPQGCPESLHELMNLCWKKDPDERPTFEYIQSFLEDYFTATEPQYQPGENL

One test concerns the target T1, human recombinant Yes [a.a. 2–543 (end)] (Homo sapiens, UniProt P07947).
T1 construct: human recombinant Yes [a.a; 2–543 (end)]; purchased BPS Bioscience 40488
In words: ADP-Glo kinase assay, inhibition rates of Yes phosphorylation activity (first and second screening). The class given is biochemical. The settings on record: first screening; mean of n = 4 wells; 10 μmol L−1 compound. On the procedure: All inhibitory assays of the phosphorylation activity of Yes were performed in accordance with the Promega Technical Manual for the ADP-Glo™ Kinase Assay (Fitchburg, WI, USA. Catalog number: V9102). The human recombinant Yes [a.a. 2–543 (end)] was purchased from BPS Bioscience (catalog number: 40488). The details of the assay protocol and reagent information are given elsewhere.
The screening was conducted in three steps consisting of the first screening, the second screening, and the IC50 determination, as can be illustrated in Fig. 1b. First, we determined the inhibition rates of the 1,991 compounds. Each compound was placed in 4 wells of a 384-well plate. In total, 80 compounds were assayed on one plate and the other wells were used for positive and negative controls. The compounds were randomly placed on plates so that compounds proposed by one group were not placed on a plate together. A mean of four inhibition rates for each compound was compared to criteria for the first screening. […] Second, the inhibition rates of the screened compounds were determined on one plate using the same procedure of the first screening, where compounds were dissolved from fresh powder. […] Screened compounds were then evaluated for their IC50 values.
In general terms: In ADP-Glo the light output rises with the ADP produced.
Take `FC(F)(F)c1ccnc(Nc2cn[nH]c2)n1` [Compound Z397745198]: the “First screening IR (inhibition rate)” value came to 2%.

On to `FC(F)(F)c1ccnc(Nc2ccc3nc(N4CCCC4)sc3c2)n1` [Compound Z318995726], for which the “First screening IR (inhibition rate)” value came to 22%.

For the compound `Cc1ccc(-c2nn3c(=O)c4c(-c5cccs5)csc4nc3c3ccccc23)cc1` [Compound Z55164116], the “First screening IR (inhibition rate)” value stood at 24%.

As for `CC(NCc1ccnc(OC2CCOC2)c1)c1cccc(F)c1` (centres unmarked) [Compound Z1583197068], the “First screening IR (inhibition rate)” value was 21%.

Consider `Cc1ccc(-c2nn(-c3ccc(F)cc3)cc2C(=O)N(C)CC(=O)Nc2ccc(N3CCOCC3)cc2)cc1` [Compound Z26593504], for which the “First screening IR (inhibition rate)” value is on record as 46%.

As to `Cc1cccc(OCCCNC(=O)c2ccc3nc[nH]c3c2)c1` [Compound Z168616264], the “First screening IR (inhibition rate)” value is -4%.

In the case of `Cc1ccc(Cn2ncc3c(N4CCN(CCO)CC4)ncnc32)cc1` [Compound Z1172235406], the “First screening IR (inhibition rate)” value is -13%.

On to `Cc1c(-c2ccc(O)cc2)nc2ccc(Cl)cc2c1-c1ccccc1Cl.Cl` [Compound Z48951741], for which the “First screening IR (inhibition rate)” value is reported as 40%.

On to `N#CCCn1ncc2c(NC3CCCC(C(F)(F)F)C3)ncnc21` (centres unmarked) [Compound Z990858522], for which the “First screening IR (inhibition rate)” value is -12%.

In the case of `O=C(Nc1cccc(S(=O)(=O)NC2=NCCCCC2)c1)C1(c2cccc(Cl)c2)CC1` [Compound Z316438002], the “First screening IR (inhibition rate)” value worked out at 23%.

In the case of `CCn1ncc2c(C(=O)O)cc(-c3ccccc3)nc21` [Compound Z56648330], the “First screening IR (inhibition rate)” value is on record as -43%.

Regarding `COCCCn1c(=O)c2ccccc2n2c(SCc3cn4ccccc4n3)nnc12` [Compound Z17893104], the “First screening IR (inhibition rate)” value is reported as -35%.

`Cc1cc(N2CCCC(N3CCN(C(=O)c4ccncc4)CC3)C2=O)n(C)n1` (centres unmarked) [Compound Z1629496420]: the “First screening IR (inhibition rate)” value worked out at 17%.

As to `Nc1nc(CSc2ncc(-c3ccc(F)cc3)o2)nc2ccccc12` [Compound Z226851604], the “First screening IR (inhibition rate)” value is recorded as -34%.

Consider `CCN(C1CCS(=O)(=O)C1)S(=O)(=O)c1ccc(C)c(C)c1` (centres unmarked) [Compound Z45467115], for which the “First screening IR (inhibition rate)” value turned out to be 10%.

On to `Cc1ccc(-c2nc(N)sc2C)s1` [Compound Z381381388], for which the “First screening IR (inhibition rate)” value is recorded as -1%.

In the case of `O=C(NCC1(N2CCCCC2)CCCCC1)c1ccc(S(=O)(=O)NC2CC2)cc1` [Compound Z87649109], the “First screening IR (inhibition rate)” value was -3%.

In the case of `CC(Sc1nnnn1C)C(=O)Nc1ccc2c(c1)OCO2` (centres unmarked) [Compound Z18519758], the “First screening IR (inhibition rate)” value is 5%.

Turning to `CCOC(=O)C1=C(CN2CCN(Cc3nc4sc5c(c4c(=O)[nH]3)CCCC5)CC2)NC(=O)NC1CC` (centres unmarked) [Compound Z46405175], the “First screening IR (inhibition rate)” value is on record as 0%.

Take `CCOC(=O)c1ccc(-n2c(O)c(C=NCc3ccccn3)c3ccccc3c2=O)cc1` [Compound Z31275874]: the “First screening IR (inhibition rate)” value was -12%.

`CC(NC(=O)Cn1nc(-c2ccccc2)ccc1=O)c1nc2ccccc2[nH]1` (centres unmarked) [Compound Z647256318]: the “First screening IR (inhibition rate)” value came out at 5%.

Consider `CC(C)n1ncc2c(C(=O)N3CCN(c4ccc(F)cc4)CC3)cc(-c3ccccc3)nc21` [Compound Z52005969], for which the “First screening IR (inhibition rate)” value stood at 27%.

For the compound `Cc1ccc(C(N)=O)c(OCc2ccc(C#N)cc2F)c1` [Compound Z217923492], the “First screening IR (inhibition rate)” value is 9%.

`COc1ccc(-c2csc3nc(C)nc(N4CCCN(CC(=O)NC(C)(C)C)CC4)c23)cc1OC` [Compound Z128141646]: the “First screening IR (inhibition rate)” value is on record as -7%.

Take `COc1ccc(CCNC(=O)Cn2c(CN3CCOCC3)nc3sc4c(c3c2=O)CCC(C)C4)cc1` (centres unmarked) [Compound Z56952971]: the “First screening IR (inhibition rate)” value is recorded as -10%.

With `COc1ccc(S(=O)(=O)N(C)C2CCS(=O)(=O)C2)cc1` (centres unmarked) [Compound Z89320750], the “First screening IR (inhibition rate)” value was 2%.

For `CN1CCc2nc(NC(=O)CCC(=O)c3ccccc3)sc2C1` [Compound Z54410536], the “First screening IR (inhibition rate)” value is reported as -2%.

For `Cc1nc(/C=C2/C(=O)Nc3ccc(Cl)cc32)cs1` [Compound Z44304809], the “First screening IR (inhibition rate)” value was found to be 13%.

For the compound `c1csc(-c2noc(CSc3nnc(C4CC4)n3C3CC3)n2)c1` [Compound Z90118492], the “First screening IR (inhibition rate)” value is recorded as 4%.

As for `Cc1ccc(-c2nc(NC(=O)c3ccc(F)cc3F)n[nH]2)cc1` [Compound Z119762582], the “First screening IR (inhibition rate)” value is -5%.

In the case of `NC(=O)c1cc(NC(=O)COC(=O)c2c3c(nc4ccccc24)/C(=C\c2ccccc2Cl)CC3)cc(C(N)=O)c1` [Compound Z18607575], the “First screening IR (inhibition rate)” value was determined as 10%.

For the compound `Cc1noc2ncc(C(=O)NCc3cccc(Cn4ccnc4)c3)cc12` [Compound Z395825976], the “First screening IR (inhibition rate)” value was -16%.

In the case of `O=c1cc(-c2ccccc2)c2cc(Cl)c(OCCO)cc2o1` [Compound Z335913836], the “First screening IR (inhibition rate)” value is recorded as 15%.

In the case of `Cc1ccc(/C=C/C2=Cc3c(sc(N)c3C#N)C(C)(C)C2)o1` [Compound Z56910454], the “First screening IR (inhibition rate)” value is 31%.

Take `O=C(NCCCn1ccnc1)/C(=C/c1ccc(-c2cccc(Cl)c2)o1)NC(=O)c1ccccc1` [Compound Z57239426]: the “First screening IR (inhibition rate)” value was 2%.

With `CC1CN(c2nccnc2C#N)CCN1C(=O)c1cccc(OCc2ccc(F)cc2)c1` (centres unmarked) [Compound Z1401935735], the “First screening IR (inhibition rate)” value was 35%.

`NS(=O)(=O)c1ccc(Cl)c(S(N)(=O)=O)c1` [Compound Z56877166]: the “First screening IR (inhibition rate)” value is given as 0%.

As for `Cl.Oc1ccc(-c2cc(-c3ccccc3)c3cc(Cl)ccc3n2)cc1` [Compound Z48950817], the “First screening IR (inhibition rate)” value is 51%.

In the case of `COc1ccc(-c2n[nH]c(CNC(=O)C3=NN(C)C(=O)CC3)n2)cc1` [Compound Z1119644111], the “First screening IR (inhibition rate)” value is listed as 4%.

On to `CN(C(=O)c1ccc(C2SCCCS2)cc1)c1ccc(C(N)=O)cc1` [Compound Z740420934], for which the “First screening IR (inhibition rate)” value turned out to be 0%.

Turning to `Cc1cc(C)c2c(c1)C(O)(CC(=O)c1ccccc1)C(=O)N2` (centres unmarked) [Compound Z1013750782], the “First screening IR (inhibition rate)” value is reported as 0%.

As to `COc1ccccc1-c1nn(-c2ccccc2)cc1C(=O)N1CCN(CC(=O)N2CCCCC2)CC1` [Compound Z145138304], the “First screening IR (inhibition rate)” value is 15%.

Take `O=C(NC1(C(F)(F)F)Oc2ccccc2O1)Sc1ccccc1` [Compound Z56864837]: the “First screening IR (inhibition rate)” value came to 42%.

Consider `Cc1sc2ncnc(N/N=C/c3cccc(O)c3)c2c1C` [Compound Z49890739], for which the “First screening IR (inhibition rate)” value amounted to 14%.

`O=C(OCc1noc(C2CC2)n1)c1c[nH]cc1-c1ccc(Cl)s1` [Compound Z847574324]: the “First screening IR (inhibition rate)” value worked out at 10%.

In the case of `NNc1ncnc2c1cnn2Cc1ccccc1` [Compound Z58286928], the “First screening IR (inhibition rate)” value is reported as -12%.

Turning to `Oc1c(Br)cccc1CNCc1ncc(-c2ccccc2)o1` [Compound Z1135283259], the “First screening IR (inhibition rate)” value was -4%.

For the compound `CC(C)(C)OC(=O)N1CCN(C(=O)c2cc(-c3ccccc3)nc3c2cnn3Cc2ccncc2)CC1` [Compound Z238073806], the “First screening IR (inhibition rate)” value is reported as 5%.

In the case of `CCSc1cncc(N2CCC(C(=O)NC(C)C(C)C)CC2)n1` (centres unmarked) [Compound Z1168201963], the “First screening IR (inhibition rate)” value is on record as 4%.

With `CC(C)n1ncc2cc(C(=O)Nc3ccc4[nH]c(=O)[nH]c4c3)cnc21` [Compound Z217430364], the “First screening IR (inhibition rate)” value was -10%.

As for `Cc1ccc(Nc2ccnc(Nc3ccc(C)cc3)n2)cc1` [Compound Z118512882], the “First screening IR (inhibition rate)” value is -5%.

Take `O=C(Nc1ccc(N2CCOCC2)cc1N1CCOCC1)c1ccc(N2C(=O)CCC2=O)cc1` [Compound Z28028679]: the “First screening IR (inhibition rate)” value is given as -4%.

For `CN1CCC(N(C)S(=O)(=O)c2ccc(NC(=O)Cc3ccc(F)cc3)cc2)CC1` [Compound Z28459327], the “First screening IR (inhibition rate)” value was determined as 13%.

For the compound `O=C(Nc1nc2c(s1)CN(Cc1ccccc1)CC2)c1cc(-c2ccco2)[nH]n1` [Compound Z317663344], the “First screening IR (inhibition rate)” value is given as -10%.

Take `CC(Sc1n[nH]c(-c2ccccc2Br)n1)C(=O)Nc1ccc(F)cc1` (centres unmarked) [Compound Z25191222]: the “First screening IR (inhibition rate)” value was 4%.

On to `Cc1cccc(NC2CCN(C(=O)c3c[nH]c4cccc(F)c34)CC2)n1` [Compound Z1538193381], for which the “First screening IR (inhibition rate)” value is listed as 3%.

In the case of `CC(=O)Nc1ccc(SCc2noc(-c3cccc(C)c3)n2)cc1` [Compound Z388276110], the “First screening IR (inhibition rate)” value was 12%.

Take `CC(Sc1nnc(NCc2ccc(F)cc2)s1)C(=O)N1CCCCCC1` (centres unmarked) [Compound Z151845340]: the “First screening IR (inhibition rate)” value is listed as 33%.

As for `COc1ccc(-c2cc(CSCc3nc(N)nc(Nc4ccccc4)n3)on2)cc1` [Compound Z317187130], the “First screening IR (inhibition rate)” value is -7%.

On to `COC(=O)c1ccc(F)c(S(=O)(=O)N(C)C2C3CCOC3C2(C)C)c1` (centres unmarked) [Compound Z1252759503], for which the “First screening IR (inhibition rate)” value was 3%.

The test is the same for the next values; noted with them: second screening, dissolved from fresh powder; n = 4; 10 μmol L−1 compound.
For the compound `Cc1ccc(/C=C/C2=Cc3c(sc(N)c3C#N)C(C)(C)C2)o1` [Compound Z56910454], the “Second screening IR (inhibition rate)” value is recorded as 36%.

With `Cl.Oc1ccc(-c2cc(-c3ccccc3)c3cc(Cl)ccc3n2)cc1` [Compound Z48950817], the “Second screening IR (inhibition rate)” value is -2%.
